# From article PMC11219860, “A chemogenetic approach for dopamine imaging with tunable sensitivity” (Nature Communications, 2024)
# How the values were obtained:
# dLight1.3b = assay: Multi-fiber photometry of dLight1.3b across brain regions; format: in vivo, mouse; conditions: mean ± SEM
# From the text: We used a light emitting diode (LED, M470L5 Thorlabs) at the 470-nm central wavelength for excitation of dLight1.3b. To achieve stable continuous operation, LEDs were run at 80% of maximal output power corresponding to an excitation power of ~1 mW/mm^2 per fiber channel. LED light was collimated with the 16 mm condenser lens (ACL25416U-A, Thorlabs). A microscope objective (TL4x-SAP; Thorlabs) coupled excitation light into the respective array of 12-fibers (Sylex). A dichroic beamsplitter (F58-486 dual line, AHF) coupled the excitation light into the objective (TL4x-SAP, Thorlabs) and transmitted the fluorescence in the dLight1.3b emission spectral window. To separate fluorescence signals from residuals of the excitation light and to minimize auto-fluorescence generated in a broader spectral range we used an emission filter (525/50 nm, F37-516, AHF, for dLight1.3b). To image the end face of the fiber array onto the camera we used a 100-mm focal tube lens (TTL100-A, Thorlabs). […]
# Fluorescence signals were expressed as percentage ΔF/F0 relative to the fluorescence baseline. The fluorescence baseline was defined as the minimal level of the signal after subtracting the auto-fluorescence baseline, that is the level of fluorescence estimated prior to the mouse connection. Because in our experiment we wanted to estimate the slow DETQ decay times, we fitted the second-order polynomial trend to the recorded fluorescence signals. […] In all measured traces we visually verified the quality of fit. […] To analyse the ΔF/F0 temporal dynamics at multiple temporal scales separately, we decomposed the fluorescence traces with the wavelet transform (cwt function, MATLAB). We separately analysed measurement traces (30 min before and 30 min after the injection). […] After we compared across independent channels and mice contribution of various temporal scales (in the range of 1−30 seconds) to the recorded ΔF/F0. […] To compare the temporal scales recorded before and after the DETQ injection, during the same session, we used a non-parametric Wilcoxon signed-rank test.
# msDRD2 = biological target: T1, msDRD2 (Mus musculus, UniProt P61168); assay: NanoBit complementation assay of mini-Gi recruitment; format: cell-based
# T1 construct: expressed in transfected cells; host or cells: HEK293T
# Description: To measure the effect of DETQ on mini-G protein recruitment by different GPCRs we used a Nanoluciferase (NanoBit)-based complementation assay[26],[27]. For this HEK293T cells were seeded in six-well plates (Techno Plastic Products) at a density of 300,000 cells per well and co-transfected with plasmids encoding either hmDRD1, msDRD1, msDRD2, msDRD5, msADRA1a, msβ2AR or ms5HT6 carrying a C-terminally fused SmBiT, in combination with the corresponding mini-G protein probe[78] (mini-Gs: for DRD1, DRD5, β2AR, 5HT6R; mini-Gq: for ADRA1a; or mini-Gi: for DRD2), which were N-terminally fused to LgBiT, in a 1:1 DNA ratio using Effectene transfection reagent (Qiagen). […] The plate was incubated at 37 °C for 30 min, before the luminescence signal was measured at 37 °C using a Tecan Spark plate reader before and after the manual addition of 25 µl of either ligand solution (final concentrations ranging from 1 nM to 100 µM), pure Fluorobrite-DMEM or 25 µl of a DETQ solution (1 µM final concentration).
# For in vitro luminescence assays, ligand traces were divided by buffer traces, the area under the curve for each trace was calculated using GraphPad Prism, values were normalized and fitted as dose response curve. […] The statistical significance was determined using Welch’s ANOVA followed by Dunnett’s multiple comparison test (comparison of ligand or vehicle to ligand). […]
# T1 sequence (P61168 whole entry): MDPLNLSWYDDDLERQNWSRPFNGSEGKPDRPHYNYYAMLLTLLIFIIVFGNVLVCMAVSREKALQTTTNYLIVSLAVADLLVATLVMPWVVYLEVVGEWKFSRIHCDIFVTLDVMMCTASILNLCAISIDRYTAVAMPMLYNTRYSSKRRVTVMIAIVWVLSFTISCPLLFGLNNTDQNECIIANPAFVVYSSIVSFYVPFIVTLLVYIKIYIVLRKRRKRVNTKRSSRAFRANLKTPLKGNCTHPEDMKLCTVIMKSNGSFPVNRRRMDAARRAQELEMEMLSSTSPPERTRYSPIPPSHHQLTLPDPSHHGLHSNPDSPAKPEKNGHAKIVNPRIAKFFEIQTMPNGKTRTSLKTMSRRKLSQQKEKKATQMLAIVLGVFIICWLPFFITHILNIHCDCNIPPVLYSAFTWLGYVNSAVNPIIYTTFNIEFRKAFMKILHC
smiles,measurement,setting,value
"C[C@H]1c2cccc(C(C)(C)O)c2C[C@H](CO)N1C(=O)Cc1c(Cl)cccc1Cl [DETQ, 2-(2,6-dichlorophenyl)-1-((1S,3R)-3-(hydroxymethyl)-5-(2-hydroxypropan-2-yl)-1-methyl-3,4-dihydroisoquinolin-2(1H)-yl)ethan-1-one]",peak ΔF/F0 fluorescence,dLight1.3b; CPu,28.3 ± 6.27%
same,peak ΔF/F0 fluorescence,dLight1.3b; NAc,22.3 ± 6.11%
same,peak ΔF/F0 fluorescence,dLight1.3b; PFC,6.8 ± 2.39%
same,agonist mode: direct agonist effect,msDRD2; DETQ 1 µM alone,no direct agonist effect
same,allosteric modulator mode: effect on agonist dose-response,"msDRD2; DETQ 1 µM, DA",No allosteric effect
